Where two headings read alike, the source gives them in different places.
Key:
[1] = test system: LPS-induced intra-alveolar neutrophilia; experiment: Intra-alveolar neutrophil migration after intratracheal LPS challenge in the CRL:CD rat; format: in vivo
Procedure: Evaluation of Compound Activity on Intra-Alveolar Neutrophil Migration after Intratracheal Challenge with Lipopolysacharride (LPS) in the CRL:CD Rat
LPS challenge in CRL:CD rats causes an influx of neutrophils into the lungs. Under recoverable gaseous anaesthesia (5% isoflorane in oxygen), rats were dosed via the intratracheal route with vehicle (0.05M phosphate, 0.1% Tween 80, 0.6% saline, pH 6), or compound 30 min before challenge with an intratracheal dose of 10 μg/kg LPS.
The rats (250-400 g) were euthanized 4 hr after LPS challenge with 1 mL pentobarbitone sodium. A tracheotomy was performed and a cannula inserted. The airway was then lavaged using 3 mL Isoton at room temperature. The Isoton (BeckmanCoulter, High Wycombe, UK) was left in the airway for 10 seconds before being removed. The bronchio-alveolar lavage (BAL) fluid containing inflammatory cells was placed into a 15 mL centrifuge tube and kept on ice. This process was repeated three times. An aliquot of BAL fluid was removed and the inflammatory cells were counted on Sysmex (Sysmex UK, Milton Keynes). Neutrophils were expressed in millions/animal (mean ±s.e.mean).

[2] = test system: LPS-induced TNFα production; experiment: Inhibition of LPS-induced TNFα production in human PBMCs; format: cell-based; conditions: for inhibition at 0.03 µM: Homo sapiens, PBMC
Procedure: Inhibition of Lipopolysacchamide (LPS)-Induced TNFα Production in Human Peripheral Blood Mononuclear Cells
The cells were then incubated with LPS (1 μg/mL) for 4 hours at 37° C. to induce TNFα production. At the end of the incubation period, the plates were centrifuged (300 g, 10 minutes) and 100 μL of the culture supernatant was analysed to quantify the TNFα released using a Fluorescence-linked immunosorbance assay (FLISA) assay kit (R&D Systems). Fluorescence levels were read on an FMAT plate reader. Inhibition curves were fitted using a 4-parameter logistic equation in a non-linear curve fitting routine and activity was expressed as pIC50 (mean ±s.e.mean).

guinea pig trachea = experiment: Bronchodilator onset in guinea pig isolated tracheal ring contracted with methacholine; conditions: roflumilast 1 μM alone
Procedure: Evaluation of Bronchodilator Activity in the Guinea Pig Isolated Tracheal Ring Preparation
Guinea pigs (300-500 g) were killed by cervical dislocation and the trachea was isolated. The trachea was cut into segments 2-3 cartilage rings in width and suspended in 10 ml organ baths in modified Krebs' solution (mM; NaCl, 90; NaHCO3, 45; KCl, 5; MgSO4.7H2O, 0.5; Na2HPO4.2H2O, 1; CaCl2, 2.25; glucose, 10; pH 7.4) gassed with 5% CO2, 95% […] at 37° C.). The tracheal rings were attached to an isometric force transducer for the measurement of isometric tension. The tissues were washed and a force of 1 g was applied to each tissue. The rings were contracted with methacholine (1 μM). Once the contraction had reached a plateau, vehicle (0.01% DMSO in distilled H2O), compound A (3 nM), roflumilast (1 μM) or a combination of compound A (3 nM) and roflumilast (1 μM) was added and the tissue left until the response had reached a plateau. Data were collected using the Chart 4 software (ADInstruments, Charlgrove, UK). The time to 90% of the maximum effect of the bronchodilator (onset time) was measured and expressed in min (mean ±s.e.mean).

[3] = test system: histamine-induced bronchoconstriction; experiment: Lung function in anaesthetized guinea-pigs, histamine challenge; format: in vivo, Dunkin-Hartley guinea pig
Procedure: (§1) Evaluation of Lung Function in Anaesthetized Guinea-Pigs
(§2) Male Dunkin-Hartley guinea pigs (300-600 g) were weighed and dosed with vehicle (0.05M phosphate, 0.1% Tween 80, 0.6% saline, pH 6) or compound via the intratracheal route under recoverable gaseous anaesthesia (5% halothane in oxygen). Animals were dosed with compound or vehicle two hours prior to the administration of histamine or methacholine.
(§3) Guinea pigs were anaesthetized with pentobarbitone (1 mL/kg of 60 mg/mL solution i.p.) approximately 30 minutes prior to the first bronchoconstrictor administration. The trachea was cannulated and the animal ventilated using a constant volume respiratory pump (Harvard Rodent Ventilator model 683) at a rate of 60 breath/min and a tidal volume of 5 ml/kg. A jugular vein was cannulated for the administration of histamine, methacholine or maintenance anaesthetic (0.1 mL of pentobarbitone solution, 60 mg/mL, as required).
(§4) The animals were transferred to a Flexivent System (SCIREQ, Montreal, Canada) in order to measure airway resistance. The animals were ventilated (quasi-sinusoidal ventilation pattern) at 60 breaths/min at a tidal volume of 5 mL/kg. A positive end expiratory pressure of 2-3 cmH2O was applied. Respiratory resistance was measured using the Flexivent “snapshot” facility (1 second duration, 1 Hz frequency). Once stable baseline resistance value had been obtained the animals were given histamine or methacholine in ascending doses (0.5, 1, 2, 3 and 5 μg/kg, i.v.) at approximately 4-minute intervals via the jugular catheter. After each administration of bronchoconstrictor the peak resistance value was recorded. Guinea pigs were euthanized with approximately 1.0 mL pentobarbitone sodium (Euthatal) intravenously after the completion of the lung function measurements. Percentage bronchoprotection produced by a compound was calculated at each dose of brochoconstrictor as follows:
(§5) Where % change Rveh is the mean of the maximum percentage change in airway resistance in the vehicle treated group. The results reported were measured after 5 μg/kg histamine or methacholine and were expressed as percentage bronchoprotection (mean ±s.e.mean).

[4] = test system: methacholine-induced bronchoconstriction; experiment: Lung function in anaesthetized guinea-pigs, methacholine challenge; format: in vivo, Dunkin-Hartley guinea pig
Procedure: as §1, §2, §3, §4, §5

CCCC1O[C@@H]2C[C@H]3[C@@H]4CCC5=CC(=O)C=C[C@]5(C)[C@H]4[C@@H](O)C[C@]3(C)[C@]2(C(=O)CO)O1 (some centres unmarked) [Budesonide, reference compound] was tested, and the inhibition of neutrophilia ([1]; budesonide 0.1 μg/kg intratracheal 30 min prior to LPS) was 51% and the “neutrophils in BAL” value ([1]; budesonide 0.1 μg/kg intratracheal, vehicle/LPS 14±1.6) was 7.1±0.77 million/animal.
With CNC(=O)c1cc(Cl)c(OC(C)(C)C(=O)O)cc1OC[C@@H](O)CN1CCC2(CC1)Cc1cc(Cl)ccc1O2 [Compound W, 2-{2-Chloro-5-{[(2S)-3-(5-chloro-1′H,3H-spiro[1-benzofuran-2,4′-piperidin]-1′-yl)-2-hydroxypropyl]oxy}-4-[(methylamino)carbonyl]phenoxy}-2-methylpropanoic acid] the inhibition of neutrophilia ([1]; Compound W 3 ng/kg intratracheal) was 56% and the “neutrophils in BAL” value ([1]; Compound W 3 ng/kg, vehicle/LPS 11±1.8) was 6.3±1.1 million/animal.
CC(=O)Nc1ccc(O)cc1OC[C@@](C)(O)CNC1CCN(Cc2ccc(Cl)cc2)CC1 [Compound X, N-{2-[((2S)-3-{[1-(4-chlorobenzyl)piperidin-4-yl]amino}-2-hydroxy-2-methylpropyl)oxy]-4-hydroxyphenyl}acetamide] was tested, and the inhibition of neutrophilia ([1]; Compound X 30 μg/kg intratracheal) was 30% and the “neutrophils in BAL” value ([1]; Compound X 30 μg/kg, vehicle/LPS 12±1.7) was 8.5±0.75 million/animal.
With O=C(Nc1c(Cl)cncc1Cl)c1ccc(OC(F)F)c(OCC2CC2)c1 [Roflumilast, 3-(cyclopropylmethoxy)-N-(3,5-dichloro-4-pyridinyl)-4-(difluoromethoxy)benzamide, reference compound] the inhibition at 0.03 µM ([2]; roflumilast 30 nM alone, PBMCs, LPS 1 μg/mL, read-out: inhibition of LPS-induced TNFα production) was 70 ± 4.1%, the inhibition at 0.03 µM ([2]; roflumilast 30 nM in the presence of 30 nM compound A, read-out: maximum inhibition of TNFα production) was 92 ± 0.4% and the “maximum inhibition of TNFα production” value ([2]; roflumilast 30 nM in the presence of 3 nM compound A) was 82±2.3%. The “onset time (time to 90% of the maximum effect)” value (guinea pig trachea) was 26 ± 1.4 min, the “inhibition of histamine-induced bronchoconstriction” value ([3]; roflumilast 1 mg/kg intratracheal 2 h before, histamine 5 μg/kg i.v.) was 35% and the increase in bronchoconstriction ([3]; roflumilast 1 mg/kg intratracheal, histamine 5 μg/kg, vehicle 1100±161%) was 695±177%.
With C[N+]1(C)[C@@H]2C[C@@H](OC(=O)C(O)(c3cccs3)c3cccs3)C[C@H]1[C@@H]1O[C@@H]12 [tiotropium bromide, reference compound] the increase in resistance ([4]; tiotropium bromide 0.03 pg/kg intratracheal, methacholine 5 μg/kg, vehicle 1898±211%) was 1656±269% and the “inhibition of methacholine-induced bronchoconstriction” value ([4]; tiotropium bromide intratracheal 2 h before, methacholine 5 μg/kg i.v.) was 13%.
